Source: patent publication US9242984B2, “Pyrazolyl derivatives as Syk inhibitors” (Merck Sharp & Dohme Corp., priority 2012, dated 2016)

Target: T1, recombinant human Syk (GST-hSyk fusion protein) (Homo sapiens, UniProt P43405)
T1 construct: purchased Carna Biosciences 08-176
Experiment: Homogeneous Time-Resolved Fluorescence (HTRF) assay for the recombinant human Syk enzyme
Format: biochemical
Details: 10-dose titration, 25 μM ATP; read-out: rhSYK IC50
Method in brief: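 IC50 came from a four-parameter fit over ten doses, 10 μM to 0.508 nM, with HTRF read-out (Eu-anti-pTyr antibody, SA-APC, EDTA stop, 30 min). The enzyme, 5 pM GST-hSyk, met compound for 10 min, then phosphorylated 250 nM biotin-peptide with 25 μM ATP and 5 mM Mg for 45 min at room temperature, pH 7.5.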

| IC50 [µM] | Compound |
| --- | --- |
| 0.0059 | Cc1cc(Nc2nccc(C(F)F)n2)cc(-c2cnn(C3CCC(C)(C)C(O)C3(C)O)c2)c1 (stereo not drawn) [Example 22.8, 6-[4-(3-{[4-(difluoromethyl)pyrimidin-2-yl]amino}-5-methylphenyl)-1H-pyrazol-1-yl]-1,3,3-trimethylcyclohexane-1,2-diol] |
| 0.0011 | Cc1cc(Nc2nccc(C(F)(F)F)n2)cc(-c2cnn(CC(O)C(N)=O)c2)c1 (single isomer, unassigned) [Example 7.1, (R or S)-2-hydroxy-3-[4-(3-methyl-5-{[4-(trifluoromethyl)pyrimidin-2-yl]amino}phenyl)-1H-pyrazol-1-yl]propanamide] |
| 0.001 | Cc1cc(Nc2nccc(C(F)(F)F)n2)cc(-c2cnn(CC(C)(O)C(N)=O)c2)c1 (single isomer, unassigned) [Example 8.1, (R or S) 2-hydroxy-2-methyl-3-[4-(3-methyl-5-{[4-(trifluoromethyl)pyrimidin-2-yl]amino}phenyl)-1H-pyrazol-1-yl]propanamide] |

Same assay, conditions: IC50 class; 10-dose titration, 25 μM ATP; read-out: rhSYK Activity

| Compound | IC50 [µM] |
| --- | --- |
| Cc1ccnc(Nc2cc(C)cc(-c3cnn(CCC(=O)O)c3)n2)c1 [Example 1.20, 3-(4-{4-methyl-6-[(4-methylpyridin-2-yl)amino]pyridin-2-yl}-1H-pyrazol-1-yl)propanoic acid] | 0.1 to 1 |
| Cc1cc(Nc2cc(C(F)(F)F)ccn2)nc(-c2cnn(CC3CNC(=O)O3)c2)c1 (stereo not drawn) [Example 1.28, 5-{[4-(4-methyl-6-{[4-(trifluoromethyl)pyridin-2-yl]amino}pyridin-2-yl)-1H-pyrazol-1-yl]methyl}-1,3-oxazolidin-2-one] | ≤ 0.1 |
| CCOC(=O)CCn1cc(-c2cc(C)cc(Nc3cc(C4CC4)ccn3)n2)cn1 [Example 1.17, ethyl 3-(4-{6-[(4-cyclopropylpyridin-2-yl)amino]-4-methylpyridin-2-yl}-1H-pyrazol-1-yl)propanoate] | ≤ 0.1 |
| Cc1cc(Nc2nccc(C(F)(F)F)n2)cc(-c2cnn(CC3CNC(=O)O3)c2)c1 (stereo not drawn) [Example 2.45, 5-{[4-(3-methyl-5-{[4-(trifluoromethyl)-pyrimidin-2-yl]amino}phenyl)-1H-pyrazol-1-yl]methyl}-1,3-oxazolidin-2-one] | ≤ 0.1 |
| Cc1cc(Nc2cc(C(F)(F)F)ccn2)nc(-c2cnn3c2CCC3)c1 [Example 1.15, 6-(5,6-dihydro-4H-pyrrolo[1,2-b]pyrazol-3-yl)-4-methyl-N-[4-(trifluoromethyl)pyridin-2-yl]pyridin-2-amine] | ≤ 0.1 |
| Cc1cc(Nc2nccc(C(F)(F)F)n2)cc(-c2cnn(C)c2)c1 [Example 1.3, N-[3-methyl-5-(1-methyl-1H-pyrazol-4-yl)phenyl]-4-(trifluoromethyl)-pyrimidin-2-amine] | ≤ 0.1 |
| Cc1cc(Nc2nccc(C(F)(F)F)n2)cc(-c2cnn(CC3OC(=O)NC3(C)C)c2)c1 (stereo not drawn) [Example 3.100, 4,4-dimethyl-5-{[4-(3-methyl-5-{[4-(trifluoromethyl)pyrimidin-2-yl]amino}phenyl)-1H-pyrazol-1-yl]methyl}-1,3-oxazolidin-2-one] | ≤ 0.1 |
| Cc1cc(Nc2nccc(C3CC3)n2)cc(-c2cnn(CCC(N)=O)c2)c1 [Example 2.14, 3-(4-{3-[(4-cyclopropylpyrimidin-2-yl)amino]-5-methylphenyl}-1H-pyrazol-1-yl)propanamide] | ≤ 0.1 |
| CCC(C(=O)O)n1cc(-c2cc(C)cc(Nc3nccc(C(F)(F)F)n3)c2)cn1 (stereo not drawn) [Example 3.34, 2-[4-(3-methyl-5-{[4-(trifluoromethyl)pyrimidin-2-yl]amino}-phenyl)-1H-pyrazol-1-yl]butanoic acid] | ≤ 0.1 |
| Cc1cc(Nc2nccc(C(F)F)n2)cc(-c2cnn(C(C)C3CNC(=O)O3)c2)c1 (stereo not drawn) [Example 3.91, 5-{1-[4-(3-{[4-(difluoromethyl)pyrimidin-2-yl]amino}-5-methylphenyl)-1H-pyrazol-1-yl]ethyl}-1,3-oxazolidin-2-one] | ≤ 0.1 |
| Cc1cc(Nc2nccc(C(F)(F)F)n2)cc(-c2cnn(CCCN3CCNC3=O)c2)c1 [Example 3.6, 1-{3-[4-(3-methyl-5-{[4-(trifluoro-methyl)pyrimidin-2-yl]amino}-phenyl)-1H-pyrazol-1-yl]-propyl}imidazolidin-2-one] | ≤ 0.1 |
| Cc1cc(Nc2cc(C(F)F)ccn2)nc(-c2cnn(C(C)C3CNC(=O)O3)c2)c1 (stereo not drawn) [Example 3.87, 5-{1-[4-(6-{[4-(difluoromethyl)pyridin-2-yl]amino}-4-methylpyridin-2-yl)-1H-pyrazol-1-yl]ethyl}-1,3-oxazolidin-2-one] | ≤ 0.1 |
| Cc1cc(Nc2ncc(Cl)c(C)n2)cc(-c2cnn(CC3CNC(=O)O3)c2)c1 (stereo not drawn) [Example 2.32, 5-[(4-{3-[(5-chloro-4-methylpyrimidin-2-yl)amino]-5-methylphenyl}-1H-pyrazol-1-yl)methyl]-1,3-oxazolidin-2-one] | ≤ 0.1 |
| Cc1cc(Nc2ncc(Cl)c(C)n2)cc(-c2cnn(CC3CNC(=O)O3)c2)c1 (stereo not drawn) [Example 2.26, 5-[(4-{3-[(5-chloro-4-methylpyrimidin-2-yl)amino]-5-methylphenyl}-1H-pyrazol-1-yl)methyl]-1,3-oxazolidin-2-one] | ≤ 0.1 |
| 4-{[4-(6-{[4-(difluoromethyl)pyridin-2-yl]amino}-4-methylpyridin-2-yl)-1H-pyrazol-1-yl)methyl}pyrrolidin-2-one [Example 1.37] | ≤ 0.1 |

The remaining lines, values ahead:

| IC50 [µM] | Compound |
| --- | --- |
| ≤ 0.1 | Cc1cc(Nc2ncc(F)c(C(F)F)n2)cc(-c2cnn(CC3OC(=O)NC3C)c2)c1 (single isomer, unassigned) [Example 23.20, 5-{[4-(3-{[4-(difluoromethyl)-5-fluoropyrimidin-2-yl]amino}-5-methylphenyl)-1H-pyrazol-1-yl]methyl}-4-methyl-1,3-oxazolidin-2-one] |
| ≤ 0.1 | Cc1cc(Nc2nccc(C(F)(F)F)n2)cc(-c2cnn(CC3OC(=O)NC3C(C)C)c2)c1 (single isomer, unassigned) [Example 23.3, 4-(1-methylethyl)-5-{[4-(3-methyl-5-{[4-(trifluoromethyl)pyrimidin-2-yl]amino}phenyl)-1H-pyrazol-1-yl]methyl}-1,3-oxazolidin-2-one] |
| ≤ 0.1 | Cc1cc(Nc2nccc(C(C)(F)F)n2)cc(-c2cnn(CC(C)(O)CC#N)c2)c1 (stereo not drawn) [Example 20.9, 4-[4-(3-{[4-(1,1-difluoroethyl)pyrimidin-2-yl]amino}-5-methylphenyl)-1H-pyrazol-1-yl]-3-hydroxy-3-methylbutanenitrile] |
| ≤ 0.1 | Cc1cc(Nc2nccc(C(F)F)n2)cc(-c2cnn(C3CCC(C)(C)C(O)C3(C)O)c2)c1 (stereo not drawn) [Example 22.8, 6-[4-(3-{[4-(difluoromethyl)pyrimidin-2-yl]amino}-5-methylphenyl)-1H-pyrazol-1-yl]-1,3,3-trimethylcyclohexane-1,2-diol] |
| ≤ 0.1 | COC1CC(O)(Cn2cc(-c3cc(C)cc(Nc4nccc(C)n4)c3)cn2)C1 (stereo not drawn) [Example 12.3, 3-methoxy-1-[(4-{3-methyl-5-[(4-methylpyrimidin-2-yl)amino]phenyl}-1H-pyrazol-1-yl)methyl]-cyclobutanol] |
| ≤ 0.1 | COCC(=O)NC(C)(C)Cn1cc(-c2cc(C)cc(Nc3nccc(C(F)F)n3)c2)cn1 [Example 26.3, N-{2-[4-(3-{[4-(difluoromethyl)pyrimidin-2-yl]amino}-5-methylphenyl)-1H-pyrazol-1-yl]-1,1-dimethylethyl}-2-methoxyacetamide] |
| ≤ 0.1 | Cc1cc(Nc2nccc(C(F)F)n2)cc(-c2cnn(C(C)C(C)(O)CO)c2)c1 (stereo not drawn) [Example 22.3, 3-[4-(3-{[4-(difluoromethyl)pyrimidin-2-yl]amino}-5-methylphenyl)-1H-pyrazol-1-yl]-2-methylbutane-1,2-diol] |
| 0.1 to 1 | Cc1ccnc(Nc2cc(C)nc(-c3cnn(C[C@@H](O)C(=O)O)c3)n2)c1 [Example 11.19, (2R)-2-hydroxy-3-(4-{4-methyl-6-[(4-methyl-pyridin-2-yl)amino]-pyrimidin-2-yl}-1H-pyrazol-1-yl)propanoic acid] |
| ≤ 0.1 | Cc1cc(Nc2nccc([C@@H](C)F)n2)cc(-c2cnn(CC(C)(O)CO)c2)c1 (single isomer, unassigned) [Example 25.6] |
| ≤ 0.1 | Cc1cc(Nc2nccc(C(F)(F)F)n2)cc(-c2cnn(CC(O)C(N)=O)c2)c1 (single isomer, unassigned) [Example 7.1, (R or S)-2-hydroxy-3-[4-(3-methyl-5-{[4-(trifluoromethyl)pyrimidin-2-yl]amino}phenyl)-1H-pyrazol-1-yl]propanamide] |
| ≤ 0.1 | Cc1cc(Nc2nccc(C(F)F)n2)cc(-c2cnn(CC(O)Cn3cccn3)c2)c1 (stereo not drawn) [Example 5.25, 1-[4-(3-{[4-(difluoromethyl)pyrimidin-2-yl]amino}-5-methylphenyl)-1H-pyrazol-1-yl]-3-(1H-pyrazol-1-yl)propan-2-ol] |
| 0.1 to 1 | CCOC(=O)CCc1cnn(-c2cc(C)cc(Nc3nccc(OC)n3)c2)c1 [Example 19.5, Ethyl 3-(1-{3-[(4-methoxypyrimidin-2-yl)amino]-5-methylphenyl}-1H-pyrazol-4-yl)propanoate] |
| 0.1 to 1 | CCOC(=O)CCc1cnn(-c2cc(C)cc(Nc3nccc(C4CC4)n3)c2)c1 [Example 19.4, Ethyl 3-(1-{3-[(4-cyclopropylpyrimidin-2-yl)amino]-5-methylphenyl}-1H-pyrazol-4-yl)propanoate] |
| ≤ 0.1 | Cc1cc(Nc2nccc(C(F)(F)F)n2)cc(-n2cc(C3(O)CCC(C(=O)O)CC3)cn2)c1 (stereo not drawn) [Example 19.11, 4-hydroxy-4-[1-(3-methyl-5-{[4-(trifluoromethyl)pyrimidin-2-yl]amino}phenyl)-1H-pyrazol-4-yl]cyclohexanecarboxylic acid] |
| ≤ 0.1 | Cc1cc(Nc2nccc([C@H](C)F)n2)cc(-c2cnn(CC(C)(O)CO)c2)c1 (single isomer, unassigned) [Example 25.7] |
| ≤ 0.1 | Cc1cc(Nc2nccc(C(F)(F)F)n2)cc(-c2cnn(CC(C)(O)C(N)=O)c2)c1 (single isomer, unassigned) [Example 8.1, (R or S) 2-hydroxy-2-methyl-3-[4-(3-methyl-5-{[4-(trifluoromethyl)pyrimidin-2-yl]amino}phenyl)-1H-pyrazol-1-yl]propanamide] |
| 0.1 to 1 | Cc1cc(Nc2nccc(C(F)(F)F)n2)cc(-n2cc(C3(O)CCC(C(=O)O)CC3)cn2)c1 (stereo not drawn) [Example 19.10, 4-hydroxy-4-[1-(3-methyl-5-{[4-(trifluoromethyl)pyrimidin-2-yl]amino}phenyl)-1H-pyrazol-4-yl]cyclohexanecarboxylic acid] |
| ≤ 0.1 | COc1ccnc(Nc2cc(C)cc(-c3cnn(C[C@H](O)C(N)=O)c3)c2)n1 [Example 6.4, (2S)-2-hydroxy-3-(4-{3-[(4-methoxypyrimidin-2-yl)amino]-5-methylphenyl}-1H-pyrazol-1-yl)propanamide] |
